From paper PMC8371461 (Frontiers in Pharmacology, 2021)
pKd: −log10 of the molar value.

Experiments:
RIOK2 = target: RIOK2; parameters: method as in Varin et al., 2015; details: ref Varin et al., 2015; cited from earlier work
HeLa cells = test: LC3B positive autophagosomes, immunofluorescent staining; assay type: cell-based; details: 10 µM, three days
Experimental: (§1) Cells were fixed with PBS containing 0.5% of para-formaldehyde for 15 min at room temperature. After three washing steps in PBS, cells were permeabilized with PBS containing 0.3% of Triton X-100 (Sigma) for 1 h at room temperature. After washing with PBS three times, cells were incubated overnight with the anti-LC3B antibody in PBS with 1% bovine serum albumin (Sigma) at 4°C. After three washing steps in PBS, cells were incubated with the fluorescent secondary antibody for 90 min at 4°C in PBS with 1% bovine serum albumin. They were then incubated with […] DAPI (Thermofisher) in PBS for 15 min. After washing with PBS, cells were rinsed once in water prior to mounting in the FluorSave reagent (Millipore).
(§2) Depending of these transitory environmental conditions, autophagy can either promote survival or apoptosis ([Degtyarev et al., 2008]). PIK/AKT pathway inhibition has been reported to increase cell autophagy ([Palmieri et al., 2017]). More specifically, PIP4K2C has been described as a down-regulator of autophagy ([Sharma et al., 2019]).

PSC = test: as above; assay type: cell-based, mouse; details: 10 µM, three days
Experimental: as §1, §2

SMILES | pKd (RIOK2) | number of LC3B-positive autophagosomes (HeLa cells) | number of LC3B-positive autophagosomes (PSC)
O=C(Cc1ccc(-c2ccccc2)cc1)Nc1ccccn1 [Diphenpyramide] | 6.80 |  | 
FC(F)(F)c1ccccc1-c1nc(NCc2cccs2)c2ccccc2n1 [NIH-12848] |  | confirmed in HeLa cells | 
NC(=O)c1nc(Nc2ccccc2)sc1NC(=O)C1CCCCC1 [UNC-3230] |  | increased | increased
